Experimental data taken from ChEMBL document CHEMBL1140396, “Novel C2-C3' N-peptide linked macrocyclic taxoids. Part 1: Synthesis and biological activities of docetaxel analogues with a peptide side chain at C3'” (Bioorg Med Chem Lett, 2005).

How the values were obtained:
[1] = Concentration that inhibits the rate of cold-induced microtubule disassembly; format: functional
KB = assay: Concentration that inhibits cell proliferation (KB cell line) after 72 h of incubation; format: functional, cell-based; conditions: Homo sapiens
[2] = Concentration that inhibits the rate of cold-induced microtubule disassembly; Inactive; format: functional

Compound | IC50 [1] [nM] | IC50 (KB) [nM] | IC50 [2]
CC(=O)O[C@@]12COC1C[C@H](O)C1C(=O)[C@H](O)C3=C(C)[C@@H](OC(=O)[C@H](O)[C@@H](NC(=O)NCC(=O)N[C@@H](CO)C(=O)N[C@@H](Cc4ccc(O)cc4)C(=O)O)c4ccccc4)C[C@@](O)([C@@H](OC(=O)c4ccccc4)C12)C3(C)C (some centres undefined) | 1000 | 1050 | –
CC(=O)O[C@@]12COC1C[C@H](O)C1C(=O)[C@H](O)C3=C(C)[C@@H](OC(=O)[C@H](O)[C@@H](NC(=O)N[C@H](C(=O)N4CCC[C@H]4C(=O)OCc4ccccc4)C(C)C)c4ccccc4)C[C@@](O)([C@@H](OC(=O)c4ccccc4)C12)C3(C)C (some centres undefined) | 500 | 50 | –
CC(=O)O[C@@]12COC1C[C@H](O)C1C(=O)[C@H](O)C3=C(C)[C@@H](OC(=O)[C@H](O)[C@@H](NC(=O)N[C@H](C(=O)N4CCC[C@H]4C(=O)NCC(=O)NCC(=O)OCc4ccccc4)C(C)C)c4ccccc4)C[C@@](O)([C@@H](OC(=O)c4ccccc4)C12)C3(C)C (some centres undefined) | 300 | 4000 | –
CC(=O)O[C@@]12COC1C[C@H](O)C1C(=O)[C@H](O)C3=C(C)[C@@H](OC(=O)[C@H](O)[C@@H](NC(=O)N[C@H](C(=O)N4CCC[C@H]4C(=O)NCC(=O)O)C(C)C)c4ccccc4)C[C@@](O)([C@@H](OC(=O)c4ccccc4)C12)C3(C)C (some centres undefined) | 600 | > 10000 | –
CC(=O)O[C@@]12COC1C[C@H](O)C1C(=O)[C@H](O)C3=C(C)[C@@H](OC(=O)[C@H](O)[C@@H](NC(=O)OC(C)(C)C)c4ccccc4)C[C@@](O)([C@@H](OC(=O)c4ccccc4)C12)C3(C)C (some centres undefined) | 500 | 1 | –
CC(=O)O[C@@]12COC1C[C@H](O)C1C(=O)[C@H](O)C3=C(C)[C@@H](OC(=O)[C@H](O)[C@@H](NC(=O)N[C@H](C(=O)OCc4ccccc4)C(C)C)c4ccccc4)C[C@@](O)([C@@H](OC(=O)c4ccccc4)C12)C3(C)C (some centres undefined) | 800 | 4 | –
CC(=O)O[C@@]12COC1C[C@H](O)C1C(=O)[C@H](O)C3=C(C)[C@@H](OC(=O)[C@H](O)[C@@H](NC(=O)N[C@H](C(=O)O)C(C)C)c4ccccc4)C[C@@](O)([C@@H](OC(=O)c4ccccc4)C12)C3(C)C (some centres undefined) | 800 | 670 | –
CC(=O)O[C@@]12COC1C[C@H](O)C1C(=O)[C@H](O)C3=C(C)[C@@H](OC(=O)[C@H](O)[C@@H](NC(=O)N[C@H](C(=O)N4CCC[C@H]4C(=O)NCC(=O)OCc4ccccc4)C(C)C)c4ccccc4)C[C@@](O)([C@@H](OC(=O)c4ccccc4)C12)C3(C)C (some centres undefined) | 400 | 100 | –
COC(=O)[C@H](CCSC)NC(=O)[C@H](Cc1ccccc1)NC(=O)[C@@H](NC(=O)N[C@@H](c1ccccc1)[C@@H](O)C(=O)O[C@H]1C[C@@]2(O)[C@@H](OC(=O)c3ccccc3)C3C(C(=O)[C@H](O)C(=C1C)C2(C)C)[C@@H](O)CC1OC[C@]13OC(C)=O)C(C)C (some centres undefined) | 2600 | 1100 | –
CC(=O)O[C@@]12COC1C[C@H](O)C1C(=O)[C@H](O)C3=C(C)[C@@H](OC(=O)[C@H](O)[C@@H](NC(=O)N[C@H](C(=O)N4CCC[C@H]4C(=O)O)C(C)C)c4ccccc4)C[C@@](O)([C@@H](OC(=O)c4ccccc4)C12)C3(C)C (some centres undefined) | 1700 | 4500 | –
CC(=O)O[C@@]12COC1C[C@H](O)C1C(=O)[C@H](O)C3=C(C)[C@@H](OC(=O)[C@H](O)[C@@H](NC(=O)N[C@H](C(=O)N4CCC[C@H]4C(=O)NCC(=O)NCC(=O)O)C(C)C)c4ccccc4)C[C@@](O)([C@@H](OC(=O)c4ccccc4)C12)C3(C)C (some centres undefined) | 500 | > 10000 | –
CC(=O)O[C@@]12COC1C[C@H](O)C1C(=O)[C@H](O)C3=C(C)[C@@H](OC(=O)[C@H](O)[C@@H](NC(=O)NCC(=O)N[C@@H](COCc4ccccc4)C(=O)N[C@@H](Cc4ccc(OCc5ccccc5)cc4)C(=O)OCc4ccccc4)c4ccccc4)C[C@@](O)([C@@H](OC(=O)c4ccccc4)C12)C3(C)C (some centres undefined) | – | 90 | Not Active
